Laboratory results published in ChEMBL document CHEMBL1201862, “PubChem BioAssay data set” (2004).
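Compound exposure: 48 hours, 5 concentrations, 96-well plates. The concentration for 50% growth inhibition is given as GI50.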 Activity calls are given as the source filed them. Cut-off read from the data, not from the text of the source: active = GI50 up to about 1.1 µM and inactive = higher.

Assays:
Test in all cases: NCI-60 cell line screen, 48 h
[1] = tested on: EKVX
[2] = tested on: OVCAR-3
[3] = tested on: SF-268
[4] = tested on: BT-549
[5] = tested on: DU-145
[6] = tested on: RPMI-8226
[7] = tested on: NCI-H460
[8] = tested on: SF-295
[9] = tested on: CCRF-CEM
[10] = tested on: 786-0
[11] = tested on: SK-MEL-5
[12] = tested on: HOP-62
[13] = tested on: HCC 2998
[14] = tested on: SF-539
[15] = tested on: HT-29
[16] = tested on: SK-OV-3
[17] = tested on: SK-MEL-28
[18] = tested on: HL-60
[19] = tested on: MCF7
[20] = tested on: CAKI-1

Measured: GI50

CC(=O)CSCc1ccccn1
inactive: [1] 77.1 µM | [2] 30.3 µM | [3] 8.87 µM | [4] 47.5 µM | [5] 65.2 µM | [6] 12.7 µM | [7] 30.6 µM | [8] 80.9 µM | [9] 39.9 µM | [10] 97.1 µM | [11] 26 µM | [12] 42.4 µM | [13] 39.9 µM | [14] 27 µM | [15] 51.3 µM | [16] > 100 µM | [17] 40.2 µM | [18] 29.1 µM

CC(C)C(C/C=C1\CC(CO)(COC(=O)C(C)(C)C)OC1=O)C(C)C (stereo not given)
inactive: [1] 11.1 µM | [2] 12.6 µM | [3] 13.2 µM | [4] 11.5 µM | [5] 4.65 µM | [7] 5.57 µM | [8] 4.06 µM | [9] 10.6 µM | [10] 2.65 µM | [11] 3.72 µM | [12] 3.11 µM | [13] 7.03 µM | [19] 20.7 µM | [14] 7.93 µM | [15] 19.3 µM | [16] 15.1 µM | [17] 13.2 µM | [20] 8.73 µM

N#Cc1c(-c2ccccc2)c(C=O)c(=O)n2c1[nH]c1ccccc12
inactive: [1] > 100 µM | [3] 65.9 µM | [4] 39.1 µM | [5] > 100 µM | [6] 63.2 µM | [7] > 100 µM | [8] > 100 µM | [9] 17.6 µM | [10] > 100 µM | [11] > 100 µM | [14] 77.1 µM | [15] 92 µM | [16] > 100 µM | [17] 23.9 µM | [18] 56.9 µM | [20] > 100 µM

Cc1ccc(/N=N/c2c(O)c(C(=O)O)cc3ccccc23)cc1C
inactive: [1] > 100 µM | [2] > 100 µM | [3] > 100 µM | [4] > 100 µM | [6] > 100 µM | [7] > 100 µM | [8] > 100 µM | [9] > 100 µM | [10] > 100 µM | [11] > 100 µM | [12] 62.5 µM | [13] > 100 µM | [19] > 100 µM | [14] > 100 µM | [15] > 100 µM | [16] > 100 µM | [17] > 100 µM | [18] 46.3 µM | [20] > 100 µM

O=C(COc1ccc(OCC(=O)N2C(=O)CS/C2=N\c2ccccc2)cc1)N1C(=O)CS/C1=N\c1ccccc1
inactive: [1] 32.8 µM | [3] 27.5 µM | [4] 18 µM | [5] 30.8 µM | [6] 22.5 µM | [7] 29 µM | [8] 33.3 µM | [10] 19.2 µM | [11] 11.6 µM | [13] 14.9 µM | [19] 19 µM | [15] 14.4 µM | [16] 48.5 µM | [17] 5.6 µM | [20] 20.6 µM

S=C1c2ccc(Cl)cc2-n2cnnc2C2CSCN12 (stereo not given)
inactive: [1] > 100 µM | [2] > 100 µM | [3] > 100 µM | [4] > 100 µM | [5] > 100 µM | [6] > 100 µM | [7] > 100 µM | [8] > 100 µM | [9] > 100 µM | [10] > 100 µM | [11] > 100 µM | [12] > 100 µM | [13] > 100 µM | [19] > 100 µM | [15] > 100 µM | [16] > 100 µM | [17] > 100 µM | [20] > 100 µM

CN(C)CCCN1C(=S)N(CCCN(C)C)c2c3ccccc3nc3c([N+](=O)[O-])ccc1c23
inactive: [1] 5.5 µM | [2] 6.21 µM | [3] 4.21 µM | [4] 14.7 µM | [5] 6.44 µM | [6] 6.81 µM | [7] 3.46 µM | [8] 8.38 µM | [9] 18.8 µM | [10] 4.82 µM | [11] 4.55 µM | [12] 8.95 µM | [13] 4.21 µM | [19] 5.47 µM | [14] 5.04 µM | [15] 2.94 µM | [16] 15.5 µM | [17] 13.6 µM | [20] 5.96 µM

O=C(/C=C/c1ccccc1)OCC1=C[C@@H](O)[C@@H]2C=CO[C@@H](OC3OC(CO)C(O)C(O)C3O)[C@H]12 (stereo not given in full)
inactive: [1] > 100 µM | [2] > 100 µM | [3] > 100 µM | [4] > 100 µM | [5] > 100 µM | [6] > 100 µM | [8] > 100 µM | [9] > 100 µM | [10] > 100 µM | [11] > 100 µM | [12] > 100 µM | [13] > 100 µM | [19] > 100 µM | [14] > 100 µM | [15] > 100 µM | [16] > 100 µM | [17] > 100 µM | [20] > 100 µM

CN(C)Cc1cc(/N=N/c2ccccc2)cc(CN(C)C)c1O
inactive: [1] > 100 µM | [2] 27.4 µM | [3] 73.5 µM | [4] > 100 µM | [5] 92.5 µM | [6] 80.5 µM | [7] 47.1 µM | [8] > 100 µM | [9] 32.3 µM | [10] 36.2 µM | [11] > 100 µM | [12] > 100 µM | [13] 79.1 µM | [14] > 100 µM | [15] 73.8 µM | [16] > 100 µM | [17] > 100 µM | [18] 21.9 µM | [20] > 100 µM

COc1cc2nc3n(c(=O)c2cc1OC)-c1ccc([N+](=O)[O-])cc1C3=O
inactive: [1] 36.9 µM | [2] 22.6 µM | [3] > 100 µM | [4] > 100 µM | [5] 34.6 µM | [6] 28.7 µM | [7] 68.4 µM | [8] 83.2 µM | [10] 56.8 µM | [11] 50.8 µM | [12] > 100 µM | [13] > 100 µM | [19] 11.9 µM | [14] > 100 µM | [15] > 100 µM | [16] > 100 µM | [17] 3.15 µM | [20] 5.06 µM

O=C1CCCCC/C1=C\c1ccc(Cl)cc1
inactive: [1] 44.3 µM | [2] 47.8 µM | [3] 14.5 µM | [4] 31.2 µM | [5] 39.2 µM | [6] 25.4 µM | [7] 35.2 µM | [8] 22 µM | [9] 22.6 µM | [10] 32.4 µM | [11] 13.9 µM | [12] 99.8 µM | [13] 26.2 µM | [15] 21.8 µM | [16] 60 µM | [17] 49.3 µM | [20] 37.8 µM
